In patent US20260193116A1, “MEMBRANE TREATMENT METHOD, BIOFOULING INHIBITION METHOD, AND ENDOTOXIN PRODUCTION INHIBITION METHOD IN WATER SYSTEM” (KURITA WATER INDUSTRIES LTD., priority 2022, published 2026):

Experiments:
endotoxin [1] = test system: endotoxin
endotoxin [2] = test system: endotoxin; remark: listed apart in the source

**Q.** Which results are given for `O=S(=O)(O)NCl.[Na]` [Chlorosulfamic acid, sodium monochlorosulfamic acid]?
**A.** Endotoxin concentration compared to the treatments with chloramine, DBNPA and Cl-MIT alone (endotoxin [1]): ≤ 50%; Discharge amount of endotoxin compared to raw water and Control (in words) (endotoxin [2]): suppress the discharge amount of endotoxin to be low compared to the raw water and Control

**Q.** `N#CC(Br)(Br)C(N)=O` [DBNPA, 2,2-dibromo-3-nitrilopropionamide, reference compound] was tested. Which Endotoxin concentration (endotoxin [1]) did it give?
**A.** 19.1 EU/mL

**Q.** Chloramine [reference compound] was tested. Which Endotoxin concentration (endotoxin [1]) did it give?
**A.** 31.1 EU/mL
